# Several values for one entry are separate records, joined by “and”; a condition that tells them apart may be missing. Equal values may be shown once. Inconclusive results and toxic doses are left out.
# Test system: P388 leukemia ip, CD2F1 mice, survival T/C
# Test: NCI In Vivo Anticancer Drug Screen. Data for tumor model P388 Leukemia (intraperitoneal) in CD2F1 (CDF1) mice
# Details: endpoint: median survival time, higher = longer survival
# Procedure, shortened: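 Mice carrying the transplanted tumor received test compound or vehicle. Survival was recorded in each group, and the value is the treated-group measurement divided by that of the vehicle-treated control group.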
# [1] = dose: 50.0 mg/kg/injection, schedule: Q01DX009 (ip), vehicle: saline
# [2] = dose: 100.0 mg/kg/injection, schedule: Q01DX009 (ip), vehicle: saline
# [3] = dose: 200.0 mg/kg/injection, schedule: Q01DX009 (ip), vehicle: saline
# [4] = dose: 60.0 mg/kg/injection, schedule: Q01DX005 (ip), vehicle: saline
# [5] = dose: 50.0 mg/kg/injection, schedule: Q01DX009 (ip), vehicle: Klucel (hydroxypropylcellulose) (HPC)
# [6] = dose: 100.0 mg/kg/injection, schedule: Q01DX009 (ip), vehicle: Klucel (hydroxypropylcellulose) (HPC)
# [7] = dose: 50.0 mg/kg/injection, schedule: Q01DX005 (ip), vehicle: Klucel (hydroxypropylcellulose) (HPC)
# [8] = dose: 100.0 mg/kg/injection, schedule: Q01DX005 (ip), vehicle: Klucel (hydroxypropylcellulose) (HPC)
# [9] = dose: 200.0 mg/kg/injection, schedule: Q01DX005 (ip), vehicle: Klucel (hydroxypropylcellulose) (HPC)
structure (smiles),measurement,setting,value
CCOC(=O)c1cc(-c2ccc(Cl)cc2)nc2c(Cl)cc(Cl)cc12,T/C,"dose: 100.0 mg/kg/injection, schedule: Q01DX009 (ip), vehicle: saline with Tween-80",93 % of control
same,T/C,"dose: 200.0 mg/kg/injection, schedule: Q01DX009 (ip), vehicle: saline with Tween-80",94 % of control
same,T/C,"dose: 400.0 mg/kg/injection, schedule: Q01DX009 (ip), vehicle: saline with Tween-80",88 % of control
NCC(O)c1ccc(O)cc1 (centres undefined),T/C,[1],101 % of control and 111 % of control
same,T/C,[2],106 % of control and 108 % of control
same,T/C,[3],106 % of control and 90 % of control
same,T/C,"dose: 400.0 mg/kg/injection, schedule: Q01DX009 (ip), vehicle: saline",89 % of control and 96 % of control
same,T/C,"dose: 600.0 mg/kg/injection, schedule: Q01DX009 (ip), vehicle: saline",89 % of control and 90 % of control
CC(C)C1CCC2(C)CCC3(C)CCC12O3 (centres undefined),T/C,"dose: 12.0 mg/kg/injection, schedule: Q01DX009 (ip), vehicle: Klucel (hydroxypropylcellulose) (HPC)",108 % of control
same,T/C,"dose: 24.0 mg/kg/injection, schedule: Q01DX009 (ip), vehicle: Klucel (hydroxypropylcellulose) (HPC)",98 % of control
same,T/C,"dose: 48.0 mg/kg/injection, schedule: Q01DX009 (ip), vehicle: Klucel (hydroxypropylcellulose) (HPC)",108 % of control
same,T/C,"dose: 96.0 mg/kg/injection, schedule: Q01DX009 (ip), vehicle: Klucel (hydroxypropylcellulose) (HPC)",108 % of control
COc1cc2cnc(-c3ccc(Cl)c(Cl)c3)cc2cc1OC,T/C,"dose: 25.0 mg/kg/injection, schedule: Q01DX009 (ip), vehicle: saline",100 % of control
same,T/C,[1],97 % of control
same,T/C,[2],89 % of control
c1ccc(CCNCCN2CCNCC2)cc1,T/C,[4],108 % of control
same,T/C,"dose: 120.0 mg/kg/injection, schedule: Q01DX005 (ip), vehicle: saline",99 % of control
CC(CN1C(=O)CCC1=O)N1C(=O)CCC1=O (centres undefined),T/C,"dose: 50.0 mg/kg/injection, schedule: Q01DX005 (ip), vehicle: saline",100 % of control
same,T/C,"dose: 100.0 mg/kg/injection, schedule: Q01DX005 (ip), vehicle: saline",103 % of control
same,T/C,"dose: 200.0 mg/kg/injection, schedule: Q01DX005 (ip), vehicle: saline",100 % of control
Nc1ccc(S(=O)(=O)Nc2ccc3oc(=O)[nH]c3c2)cc1,T/C,"dose: 50.0 mg/kg/injection, schedule: Q04DX002 (ip), vehicle: Klucel (hydroxypropylcellulose) (HPC)",101 % of control
same,T/C,"dose: 100.0 mg/kg/injection, schedule: Q04DX002 (ip), vehicle: Klucel (hydroxypropylcellulose) (HPC)",104 % of control
same,T/C,"dose: 200.0 mg/kg/injection, schedule: Q04DX002 (ip), vehicle: Klucel (hydroxypropylcellulose) (HPC)",104 % of control
Cc1ccc(NCCN(C)C)c2c(=O)c3cc(O)ccc3sc12,T/C,"dose: 1.0 mg/kg/injection, schedule: Q01DX009 (ip), vehicle: saline with Tween-80",103 % of control
same,T/C,"dose: 8.0 mg/kg/injection, schedule: Q01DX009 (ip), vehicle: Klucel (hydroxypropylcellulose) (HPC)",180 % of control
same,T/C,"dose: 16.0 mg/kg/injection, schedule: Q01DX009 (ip), vehicle: Klucel (hydroxypropylcellulose) (HPC)",170 % of control
same,T/C,"dose: 16.0 mg/kg/injection, schedule: Q01DX009 (ip), vehicle: saline with Tween-80",151 % of control
same,T/C,"dose: 32.0 mg/kg/injection, schedule: Q01DX009 (ip), vehicle: Klucel (hydroxypropylcellulose) (HPC)",191 % of control
same,T/C,"dose: 32.0 mg/kg/injection, schedule: Q01DX009 (ip), vehicle: saline with Tween-80",157 % of control
same,T/C,"dose: 37.0 mg/kg/injection, schedule: Q01DX009 (ip), vehicle: Klucel (hydroxypropylcellulose) (HPC)",97 % of control
same,T/C,[5],234 % of control
same,T/C,"dose: 64.0 mg/kg/injection, schedule: Q01DX009 (ip), vehicle: Klucel (hydroxypropylcellulose) (HPC)",265 % of control
same,T/C,[6],87 % of control
C/C(=C\CC1C(=O)N(c2ccccc2)N(c2ccccc2)C1=O)CO,T/C,"dose: 60.0 mg/kg/injection, schedule: Q01DX005 (ip), vehicle: Klucel (hydroxypropylcellulose) (HPC)",100 % of control
same,T/C,"dose: 120.0 mg/kg/injection, schedule: Q01DX005 (ip), vehicle: Klucel (hydroxypropylcellulose) (HPC)",100 % of control
same,T/C,"dose: 240.0 mg/kg/injection, schedule: Q01DX005 (ip), vehicle: Klucel (hydroxypropylcellulose) (HPC)",91 % of control
c1ccc2c(c1)O[As](O[As]1Oc3ccccc3O1)O2,T/C,"dose: 2.5 mg/kg/injection, schedule: Q01DX009 (ip), vehicle: saline with Tween-80",106 % of control
same,T/C,"dose: 5.0 mg/kg/injection, schedule: Q01DX009 (ip), vehicle: saline with Tween-80",122 % of control
same,T/C,"dose: 20.0 mg/kg/injection, schedule: Q01DX009 (ip), vehicle: saline with Tween-80",161 % of control
CN1C(=O)/C(=C2\SC(=O)N(CN3CCCCC3)C2=O)c2ccccc21,T/C,[7],92 % of control
same,T/C,[8],100 % of control
same,T/C,[9],99 % of control
O=[N+]([O-])c1ccc(-c2nnn(Cc3ccco3)c2N2CCCCC2)cc1,T/C,[7],105 % of control
same,T/C,[8],105 % of control
same,T/C,[9],107 % of control
Cc1cccc(-c2cc3ccccc3c(Cl)n2)n1,T/C,"dose: 100.0 mg/kg/injection, schedule: Q01DX001 (ip), vehicle: saline with Tween-80",104 % of control
same,T/C,"dose: 200.0 mg/kg/injection, schedule: Q01DX001 (ip), vehicle: saline with Tween-80",100 % of control
same,T/C,"dose: 400.0 mg/kg/injection, schedule: Q01DX001 (ip), vehicle: saline with Tween-80",91 % of control
O=C/C=C/C=O,T/C,"dose: 3.13 mg/kg/injection, schedule: Q01DX001 (ip), vehicle: saline with Tween-80",102 % of control
same,T/C,"dose: 6.25 mg/kg/injection, schedule: Q01DX001 (ip), vehicle: saline with Tween-80",102 % of control
same,T/C,"dose: 12.5 mg/kg/injection, schedule: Q01DX001 (ip), vehicle: saline with Tween-80",102 % of control
same,T/C,"dose: 25.0 mg/kg/injection, schedule: Q01DX001 (ip), vehicle: saline with Tween-80",114 % of control
COc1cc(CCC(=O)O)on1,T/C,[1],101 % of control
same,T/C,[2],109 % of control
same,T/C,[3],108 % of control
O=C1c2c(ccc3ccccc23)CN2CCCCC12 (centres undefined),T/C,"dose: 60.0 mg/kg/injection, schedule: Q01DX005 (ip), vehicle: saline with Tween-80",101 % of control
same,T/C,"dose: 120.0 mg/kg/injection, schedule: Q01DX005 (ip), vehicle: saline with Tween-80",103 % of control
same,T/C,"dose: 240.0 mg/kg/injection, schedule: Q01DX005 (ip), vehicle: saline with Tween-80",103 % of control
O=C1C(C(=Nc2ccc(Br)cc2)c2ccccc2)=C(O)c2ccccc21,T/C,"dose: 25.0 mg/kg/injection, schedule: Q04DX002 (ip), vehicle: saline with Tween-80",93 % of control
same,T/C,"dose: 50.0 mg/kg/injection, schedule: Q04DX002 (ip), vehicle: saline with Tween-80",99 % of control
same,T/C,"dose: 100.0 mg/kg/injection, schedule: Q04DX002 (ip), vehicle: saline with Tween-80",92 % of control
CCCCOc1cc(C(=O)O)ccc1[N+](=O)[O-],T/C,"dose: 50.0 mg/kg/injection, schedule: Q04DX003 (ip), vehicle: saline with Tween-80",100 % of control
same,T/C,"dose: 200.0 mg/kg/injection, schedule: Q04DX003 (ip), vehicle: saline with Tween-80",104 % of control
CCCCCCCCC(=O)OCCN(CCOC(=O)CCCCCCCC)C(=O)COC(=O)CCCCCCCC,T/C,[5],102 % of control
same,T/C,[6],113 % of control
same,T/C,"dose: 200.0 mg/kg/injection, schedule: Q01DX009 (ip), vehicle: Klucel (hydroxypropylcellulose) (HPC)",93 % of control
COc1ccc2c(C)cc(N/N=C/c3cccc(C)n3)nc2c1,T/C,[7],98 % of control and 104 % of control and 93 % of control
same,T/C,[8],105 % of control and 109 % of control and 110 % of control
same,T/C,[9],104 % of control and 116 % of control and 124 % of control
O=C(O)C(=O)O.O=C([O-])C(=O)O.O=C([O-])C(=O)O.[Fe+3].[K+],T/C,"dose: 30.0 mg/kg/injection, schedule: Q01DX005 (ip), vehicle: saline",100 % of control
same,T/C,[4],99 % of control
CCOC(=O)Cc1c[nH]c2ccc(N(CCCl)CCCl)cc12,T/C,"dose: 5.0 mg/kg/injection, schedule: Q04DX003 (ip), vehicle: Klucel (hydroxypropylcellulose) (HPC)",204 % of control
same,T/C,"dose: 8.0 mg/kg/injection, schedule: Q04DX003 (ip), vehicle: Klucel (hydroxypropylcellulose) (HPC)",245 % of control
same,T/C,"dose: 12.5 mg/kg/injection, schedule: Q04DX003 (ip), vehicle: Klucel (hydroxypropylcellulose) (HPC)",245 % of control
CNC(=O)OCc1c(C)oc(-c2ccc(Cl)c(Cl)c2)c1COC(=O)NC,T/C,"dose: 25.0 mg/kg/injection, schedule: Q01DX009 (ip), vehicle: distilled water + Tween-80",102 % of control
same,T/C,"dose: 50.0 mg/kg/injection, schedule: Q01DX009 (ip), vehicle: distilled water + Tween-80",97 % of control
same,T/C,"dose: 100.0 mg/kg/injection, schedule: Q01DX009 (ip), vehicle: distilled water + Tween-80",97 % of control
same,T/C,"dose: 200.0 mg/kg/injection, schedule: Q01DX009 (ip), vehicle: distilled water + Tween-80",91 % of control
same,T/C,"dose: 400.0 mg/kg/injection, schedule: Q01DX009 (ip), vehicle: distilled water + Tween-80",90 % of control

# Source: PubChem BioAssay AID330 (DTP/NCI, 2004)
